Assays:
Mouse ERK2 protein = Mouse ERK2 protein (Mus musculus (Mouse), UniProt P63085); assay: Coupled MEK1/ERK2 IMAP assay or Active ERK2 IMAP assay; format: biochemical; details: Table 2, 30 μM ATP
ERK protein = ERK protein (Mus musculus, UniProt P63085); assay: TdF (Temperature Dependence Fluorescence, thermal shift) assay for ERK; format: binding; details: Table 2; 3 μM ERK protein
Description: The SAR (Structure Activity Relationship) for ERK ligands covered by this invention was interrogated using the TdF (Temperature Dependence Fluorescence) assay or best known as thermal shift assay. (M. W. Pantoliano, et al., “High-density miniaturized thermal shift assays as a general strategy for drug discovery,” J. Biomol. Screen 6 (2001) 429-440) The TdF assay was mainly conducted in the 96-well based CHROMO-4 real time fluorescence plate reader (BioRad). The Sypro Orange (Sigma-Aldrich), environmentally sensitive fluorescence dye, was used to monitor the protein folding-unfolding transition. Protein-ligand binding was gauged by the change (or shift) in the unfolding transition temperature (ΔTm) acquired at protein alone with respect to protein in the presence of ligand of interest.
Compound of interest was first prepared in DMSO stock (typical concentration: 10 mM). […] Final percentage of DMSO resided in the sample was 2%. The sample plate was heated from 30° C. to 90° C. with thermal ramping rate of 1° C./min. The fluorescence signals were acquired with excitation and emission wavelengths centered at 490 and 560 nm respectively. The instrument thermal stability was ±0.2° C. The melting temperatures (Tm) for ERK protein under aforementioned conditions occurred at […] and 64.8±0.2° C. respectively.
The derivation of TdF-based ligand binding affinity constant (Kd) followed closely those previously formulated by Brandts and Lin. (J. F. Brandts, L.-N. Lin, “Study of strong to ultratight protein interactions using differential scanning calorimetry,” Biochemistry 29 (1990) 6927-6940). In brief, the binding constant of the ligand at the Tm is expressed as below:
[formula] where T0 is the midpoint of unfolding for unliganded protein and Tm is the midpoint of unfolding in presence of ligand. [LTm] is free ligand at Tm. The ΔHu and ΔCpu are the enthalpy of unfolding and heat capacity change of unfolding for the protein respectively. Following algorithm derived by Winsor and coworker, the T0, ΔHu and ΔCpu can be determined separately from nonlinear regression fitting the protein alone melting curve:
[formula] where F(T) is the observed fluorescence intensity at any temperature T, Yn, and Yu are the predicted fluorescence intensities for fully folded and unfolded protein, respectively; mn and mu are slope correction for changes in Yn and Yu with respect to changes in temperature (analogously replace T0 with Tm in the above equation for liganded protein to yield Tm). (Mayhood, T. W., Windsor, W. T., “Ligand binding affinity determined by temperature-dependent circular dichroism: Cyclin-dependent kinase 2 inhibitors,” Analytical Biochemistry 345 (2005) 187-197).
[formula] where ΔHL (T) is the van't Hoff enthalpy of ligand binding at temperature T and ΔCpL is the heat capacity upon ligand binding. For simplicity, the ΔCpL and ΔHL (T) were set to zero and -7 kcal/mol respectively. […]

Chain of ERK protein (P63085 2-358 limits assumed): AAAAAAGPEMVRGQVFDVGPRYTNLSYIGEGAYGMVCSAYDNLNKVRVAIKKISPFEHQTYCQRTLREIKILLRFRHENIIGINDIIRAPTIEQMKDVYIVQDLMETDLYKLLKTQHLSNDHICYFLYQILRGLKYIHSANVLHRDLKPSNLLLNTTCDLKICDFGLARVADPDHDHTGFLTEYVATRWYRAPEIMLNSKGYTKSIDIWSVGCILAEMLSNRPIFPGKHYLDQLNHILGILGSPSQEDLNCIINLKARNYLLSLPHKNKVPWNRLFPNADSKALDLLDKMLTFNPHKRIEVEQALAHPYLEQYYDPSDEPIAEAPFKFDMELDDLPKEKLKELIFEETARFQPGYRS
Chain of Mouse ERK2 protein (P63085 whole entry): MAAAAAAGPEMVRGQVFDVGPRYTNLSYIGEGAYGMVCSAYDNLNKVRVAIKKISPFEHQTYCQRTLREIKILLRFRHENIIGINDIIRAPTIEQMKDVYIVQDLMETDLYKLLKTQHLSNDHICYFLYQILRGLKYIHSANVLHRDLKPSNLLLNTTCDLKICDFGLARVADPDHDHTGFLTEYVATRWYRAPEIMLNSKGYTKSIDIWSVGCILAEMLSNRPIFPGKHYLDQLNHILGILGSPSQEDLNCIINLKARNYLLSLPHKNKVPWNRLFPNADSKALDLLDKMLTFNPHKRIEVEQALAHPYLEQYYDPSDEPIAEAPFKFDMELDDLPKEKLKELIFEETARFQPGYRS

IC50 (Mouse ERK2 protein) [nM]	Kd (ERK protein) [nM]	SMILES
2.01	2.1	CC(=O)n1cc(CN2CCC[C@@H](NC(=O)N3CCc4[nH]nc(-c5ccncc5)c4C3)C2)c2ccccc21 [Compound 62, N-[1-[(1-acetyl-1H-indol-3-yl)methyl]-3(R)-piperidinyl]-1,4,6,7-tetrahydro-3-(4-pyridinyl)-5H-pyrazolo[4,3-c]pyridine-5-carboxamide]
2.4	0.31	O=C(N[C@@H]1CCCN(Cc2ccccc2Cl)C1)N1CCc2[nH]nc(-c3ccncc3)c2C1 [Compound 69, N-[1-[(2-chlorophenyl)-methyl]-3(R)-piperidinyl]-1,4,6,7-tetrahydro-3-(4-pyridinyl)-5H-pyrazolo[4,3-c]pyridine-5-carboxamide]
2.07	0.15	Cc1cccc(C)c1CN1CCC[C@@H](NC(=O)N2CCc3[nH]nc(-c4ccncc4)c3C2)C1 [Compound 71, N-[1-[(2,6-dimethylphenyl)-methyl]-3(R)-piperidinyl]-1,4,6,7-tetrahydro-3-(4-pyridinyl)-5H-pyrazolo[4,3-c]pyridine-5-carboxamide]
6.3	0.13	Cc1cc(-c2n[nH]c3c2CN(C(=O)NC2CCCN(Cc4c(C)cccc4C)C2)CC3)ccn1 (centres unmarked) [Compound 84, N-[1-[(2,6-dimethylphenyl)-methyl]-3-piperidinyl]-1,4,6,7-tetrahydro-3-(2-methyl-4-pyridinyl)-5H-pyrazolo[4,3-c]pyridine-5-carboxamide]
3.7	0.4	Cc1cc(-c2n[nH]c3c2CN(C(=O)N[C@@H]2CCCN(Cc4cccc5ccccc45)C2)CC3)ccn1 [Compound 100, 1,4,6,7-tetrahydro-3-(2-methyl-4-pyridinyl)-N-[1-(1-naphthalenylmethyl)-3(R)-piperidinyl]-5H-pyrazolo[4,3-c]pyridine-5-carboxamide]
3	0.14	O=C(N[C@@H]1CCCN(Cc2csc3ccccc23)C1)N1CCc2[nH]nc(-c3ccc4nccn4c3)c2C1 [Compound 109, N-[1-(benzo[b]thien-3-ylmethyl)-3(R)-piperidinyl]-1,4,6,7-tetrahydro-3-(imidazo[1,2-a]pyridin-6-yl)-5H-pyrazolo[4,3-c]pyridine-5-carboxamide]
5.3	0.03	Cc1cccc(C)c1CN1CCC[C@@H](NC(=O)N2CCc3[nH]nc(-c4ccc5nccn5c4)c3C2)C1 [Compound 110]
3.1	0.12	O=C(N[C@@H]1CCCN(Cc2cccc3ccccc23)C1)N1CCc2[nH]nc(-c3ccc4nccn4c3)c2C1 [Compound 112, 1,4,6,7-tetrahydro-3-imidazo[1,2-a]pyridin-6-yl-N-[1-(1-naphthalenylmethyl)-3(R)-piperidinyl]-5H-pyrazolo[4,3-c]pyridine-5-carboxamide]
4.2	0.03	COc1cccc(F)c1CN1CCC[C@@H](NC(=O)N2CCc3[nH]nc(-c4ccc5nccn5c4)c3C2)C1 [Compound 113, N-[1-[(2-fluoro-6-methoxyphenyl)methyl]-3(R)-piperidinyl]-1,4,6,7-tetrahydro-3-(imidazo[1,2-a]pyridin-6-yl)-5H-pyrazolo[4,3-c]pyridine-5-carboxamide]
4.3	0.06	COc1cccc(F)c1CN1CC(NC(=O)N2CCc3[nH]nc(-c4ccnc(C)c4)c3C2)CC(C(F)(F)F)C1 (centres unmarked) [Compound 123, N-[1-[(2-fluoro-6-methoxyphenyl)methyl]-5-(trifluoromethyl)-3-piperidinyl]-1,4,6,7-tetrahydro-3-(2-methyl-4-pyridinyl)-5H-pyrazolo[4,3-c]pyridine-5-carboxamide]

Source: US9242981B2, “Fused pyrazole derivatives as novel ERK inhibitors” (Merck Sharp & Dohme Corp., priority 2010, dated 2016)
